# Tested on: 565726-208-R1-J5-PDC complex spheroids, growth inhibition
# Assay: Anticancer human tumor 565726-208-R1-J5-PDC patient-derived pancreatic adenocarcinoma cell line growth inhibition [RAS]
# Details: for IC50: curve of first compound; for viability, T/C: stronger effect = lower value
# Method in brief: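 Multi-cell-type spheroids: tumor cells plus HUVEC endothelial cells and mesenchymal stem cells. RAS-pathway inhibitors were combined with targeted agents, each dosed in half-log steps down from clinical Cmax, or from 10 microM when Cmax was unknown.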
# [1] = second compound 0.000949 µM, first compound 0.00316 µM
# [2] = second compound 0.000949 µM, first compound 0.01 µM
# [3] = second compound 0.000949 µM, first compound 0.0316 µM
# [4] = second compound 0.000949 µM, first compound 0.1 µM
# [5] = second compound 0.000949 µM, first compound 0.316 µM
# [6] = second compound 0.000949 µM, first compound 1 µM
# [7] = second compound 0.003 µM, first compound 0.00316 µM
# [8] = second compound 0.003 µM, first compound 0.01 µM
# [9] = second compound 0.003 µM, first compound 0.0316 µM
# [10] = second compound 0.003 µM, first compound 0.1 µM
# [11] = second compound 0.003 µM, first compound 0.316 µM
# [12] = second compound 0.003 µM, first compound 1 µM
# [13] = second compound 0.00949 µM, first compound 0.00316 µM
# [14] = second compound 0.00949 µM, first compound 0.01 µM
# [15] = second compound 0.00949 µM, first compound 0.0316 µM
# [16] = second compound 0.00949 µM, first compound 0.1 µM
# [17] = second compound 0.00949 µM, first compound 0.316 µM
# [18] = second compound 0.00949 µM, first compound 1 µM
# [19] = second compound 0.03 µM, first compound 0.00316 µM
# [20] = second compound 0.03 µM, first compound 0.01 µM
# [21] = second compound 0.03 µM, first compound 0.0316 µM
# [22] = second compound 0.03 µM, first compound 0.1 µM
# [23] = second compound 0.03 µM, first compound 0.316 µM
# [24] = second compound 0.03 µM, first compound 1 µM
# [25] = second compound 0.0949 µM, first compound 0.00316 µM
# [26] = second compound 0.0949 µM, first compound 0.01 µM
# [27] = second compound 0.0949 µM, first compound 0.0316 µM
# [28] = second compound 0.0949 µM, first compound 0.1 µM
# [29] = second compound 0.0949 µM, first compound 0.316 µM
# [30] = second compound 0.0949 µM, first compound 1 µM
# [31] = second compound 0.3 µM, first compound 0.00316 µM
# [32] = second compound 0.3 µM, first compound 0.01 µM
# [33] = second compound 0.3 µM, first compound 0.0316 µM
# [34] = second compound 0.3 µM, first compound 0.1 µM
# [35] = second compound 0.3 µM, first compound 0.316 µM
# [36] = second compound 0.3 µM, first compound 1 µM
# 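Also: spheroids exposed to compounds for seven days before readout.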
# 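For viability, T/C in this document: 100% = DMSO vehicle control viability.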
smiles,measurement,setting,value
CCN1CCN(Cc2ccc(Nc3ncc(F)c(-c4cc(F)c5nc(C)n(C(C)C)c5c4)n3)nc2)CC1 + CCn1c(-c2cccnc2C(C)OC)c2c3cc(ccc31)N1CCOC(CC(NC(=O)C(C(C)C)N(C)C(=O)C3(F)CCN(C(=O)C#CC(C)(C)N(C)C)CC3)C(=O)N3CCCC(N3)C(=O)OCC(C)(C)C2)C1,IC50,second compound 0.000949 µM,> 1000 nM
same,IC50,second compound 0.003 µM,> 1000 nM
same,IC50,second compound 0.00949 µM,> 1000 nM
same,IC50,second compound 0.03 µM,> 1000 nM
same,IC50,second compound 0.0949 µM,> 1000 nM
same,IC50,second compound 0.3 µM,> 1000 nM
same,"viability, T/C",[1],93.5%
same,"viability, T/C",[2],91.2%
same,"viability, T/C",[3],80.6%
same,"viability, T/C",[4],74%
same,"viability, T/C",[5],59.3%
same,"viability, T/C",[6],56.2%
same,"viability, T/C",[7],105%
same,"viability, T/C",[8],96%
same,"viability, T/C",[9],84.3%
same,"viability, T/C",[10],74.7%
same,"viability, T/C",[11],60.4%
same,"viability, T/C",[12],61%
same,"viability, T/C",[13],97.7%
same,"viability, T/C",[14],89.8%
same,"viability, T/C",[15],84.4%
same,"viability, T/C",[16],69.4%
same,"viability, T/C",[17],64.3%
same,"viability, T/C",[18],56%
same,"viability, T/C",[19],91.5%
same,"viability, T/C",[20],94.3%
same,"viability, T/C",[21],85.1%
same,"viability, T/C",[22],72.7%
same,"viability, T/C",[23],62%
same,"viability, T/C",[24],57.4%
same,"viability, T/C",[25],95%
same,"viability, T/C",[26],94.7%
same,"viability, T/C",[27],85.7%
same,"viability, T/C",[28],67.9%
same,"viability, T/C",[29],54.1%
same,"viability, T/C",[30],59.5%
same,"viability, T/C",[31],85%
same,"viability, T/C",[32],82.1%
same,"viability, T/C",[33],76.5%
same,"viability, T/C",[34],64.1%
same,"viability, T/C",[35],56.2%
same,"viability, T/C",[36],55.3%
O=C(c1ccc(F)c(F)c1Nc1ccc(I)cc1F)N1CC(O)([C@@H]2CCCCN2)C1 + CCn1c(-c2cccnc2C(C)OC)c2c3cc(ccc31)N1CCOC(CC(NC(=O)C(C(C)C)N(C)C(=O)C3(F)CCN(C(=O)C#CC(C)(C)N(C)C)CC3)C(=O)N3CCCC(N3)C(=O)OCC(C)(C)C2)C1,IC50,second compound 0.000949 µM,161 nM
same,IC50,second compound 0.003 µM,130 nM
same,IC50,second compound 0.00949 µM,160 nM
same,IC50,second compound 0.03 µM,182 nM
same,IC50,second compound 0.0949 µM,192 nM
same,IC50,second compound 0.3 µM,95.7 nM
same,"viability, T/C",[1],95.3%
same,"viability, T/C",[2],83.2%
same,"viability, T/C",[3],76.8%
same,"viability, T/C",[4],55.4%
same,"viability, T/C",[5],40%
same,"viability, T/C",[6],17.7%
same,"viability, T/C",[7],96.4%
same,"viability, T/C",[8],80.4%
same,"viability, T/C",[9],71.8%
same,"viability, T/C",[10],53.2%
same,"viability, T/C",[11],36.8%
same,"viability, T/C",[12],19%
same,"viability, T/C",[13],93.7%
same,"viability, T/C",[14],87.3%
same,"viability, T/C",[15],67.7%
same,"viability, T/C",[16],57.1%
same,"viability, T/C",[17],43.2%
same,"viability, T/C",[18],19.9%
same,"viability, T/C",[19],82.7%
same,"viability, T/C",[20],82.3%
same,"viability, T/C",[21],77.9%
same,"viability, T/C",[22],59.5%
same,"viability, T/C",[23],40.6%
same,"viability, T/C",[24],19.4%
same,"viability, T/C",[25],82.8%
same,"viability, T/C",[26],78.8%
same,"viability, T/C",[27],72.9%
same,"viability, T/C",[28],57.4%
same,"viability, T/C",[29],43.8%
same,"viability, T/C",[30],19.8%
same,"viability, T/C",[31],82.6%
same,"viability, T/C",[32],71.2%
same,"viability, T/C",[33],67.5%
same,"viability, T/C",[34],45.9%
same,"viability, T/C",[35],34.4%
same,"viability, T/C",[36],13.6%
